Results taken from ChEMBL document CHEMBL4507306, “Data for DCP probe KISS1-305” (2021).
The source made the active and inactive calls. The rule behind the calls is not given here. Square brackets hold non-standard residues; d marks the D form. Peptide text beside a SMILES is read from it. Arg(Me) = CNC(=N)NCCC[C@H](N)C(=O)O; d3Pal = N[C@H](Cc1cccnc1)C(=O)O; d4Pal = N[C@H](Cc1ccncc1)C(=O)O; azaGly = NNC(=O)O

Tests used:
[1] = target: Delta-type opioid receptor (Homo sapiens, UniProt P41143); experiment: GPCRScan assay: inhibition of DOR; parameters: radioligand conc. used [nm] 1.0 – 2.0, parental cells stable HEK
[2] = target: 5-hydroxytryptamine receptor 1A (Homo sapiens) (UniProt P08908); conditions: Compound concentration 1.0 uM
[3] = target: 5-hydroxytryptamine receptor 1B (Homo sapiens) (UniProt P28222); conditions: Compound concentration 1.0 uM
[4] = target: 5-hydroxytryptamine receptor 1D (Homo sapiens) (UniProt P28221); conditions: Compound concentration 1.0 uM
[5] = target: 5-hydroxytryptamine receptor 1E (Homo sapiens) (UniProt P28566); conditions: Compound concentration 1.0 uM
[6] = target: 5-hydroxytryptamine receptor 2B (Homo sapiens) (UniProt P41595); conditions: Compound concentration 1.0 uM
[7] = target: 5-hydroxytryptamine receptor 2C (Homo sapiens) (UniProt P28335); conditions: Compound concentration 1.0 uM
[8] = target: 5-hydroxytryptamine receptor 5A (Homo sapiens) (UniProt P47898); conditions: Compound concentration 1.0 uM
[9] = target: 5-hydroxytryptamine receptor 6 (Homo sapiens) (UniProt P50406); conditions: Compound concentration 1.0 uM
[10] = target: 5-hydroxytryptamine receptor 7 (Homo sapiens) (UniProt P34969); conditions: Compound concentration 1.0 uM
[11] = target: D(1A) dopamine receptor (Homo sapiens) (UniProt P21728); conditions: Compound concentration 1.0 uM
[12] = target: D(2) dopamine receptor (Homo sapiens) (UniProt P14416); conditions: Compound concentration 1.0 uM
[13] = target: D(3) dopamine receptor (Homo sapiens) (UniProt P35462); conditions: Compound concentration 1.0 uM
[14] = target: D(1B) dopamine receptor (Homo sapiens) (UniProt P21918); conditions: Compound concentration 1.0 uM
[15] = target: Sodium-dependent serotonin transporter (Homo sapiens) (UniProt P31645); conditions: Compound concentration 1.0 uM
[16] = target: Sodium-dependent noradrenaline transporter (Homo sapiens) (UniProt P23975); conditions: Compound concentration 1.0 uM
[17] = target: Sodium-dependent dopamine transporter (Homo sapiens) (UniProt Q01959); conditions: Compound concentration 1.0 uM
[18] = target: Mu-type opioid receptor (Homo sapiens) (UniProt P35372); conditions: Compound concentration 1.0 uM
[19] = target: Kappa-type opioid receptor (Homo sapiens) (UniProt P41145); conditions: Compound concentration 1.0 uM
[20] = target: T1, GABA-A receptor; anion channel (Rattus norvegicus) (UniProt O09028+P15431+P18506+P18508+P19969+P20236+P23574+P23576+P28471+P28473+P30191+P62813+P63079+P63138+Q91ZM7+Q9ES14); conditions: Compound concentration 1.0 uM
[21] = target: Histamine H1 receptor (Homo sapiens) (UniProt P35367); conditions: Compound concentration 1.0 uM
[22] = target: Histamine H2 receptor (Homo sapiens) (UniProt P25021); conditions: Compound concentration 1.0 uM
[23] = target: Histamine H3 receptor (Homo sapiens) (UniProt Q9Y5N1); conditions: Compound concentration 1.0 uM
[24] = target: Histamine H4 receptor (Homo sapiens) (UniProt Q9H3N8); conditions: Compound concentration 1.0 uM
[25] = target: Alpha-1A adrenergic receptor (Homo sapiens) (UniProt P35348); conditions: Compound concentration 1.0 uM
[26] = target: Alpha-1B adrenergic receptor (Homo sapiens) (UniProt P35368); conditions: Compound concentration 1.0 uM
[27] = target: Alpha-2A adrenergic receptor (Homo sapiens) (UniProt P08913); conditions: Compound concentration 1.0 uM
[28] = target: Alpha-2B adrenergic receptor (Homo sapiens) (UniProt P18089); conditions: Compound concentration 1.0 uM
[29] = target: Alpha-2C adrenergic receptor (Homo sapiens) (UniProt P18825); conditions: Compound concentration 1.0 uM
[30] = target: Beta-1 adrenergic receptor (Homo sapiens) (UniProt P08588); conditions: Compound concentration 1.0 uM
[31] = target: Beta-2 adrenergic receptor (Homo sapiens) (UniProt P07550); conditions: Compound concentration 1.0 uM
[32] = target: Muscarinic acetylcholine receptor M1 (Homo sapiens) (UniProt P11229); conditions: Compound concentration 1.0 uM
[33] = target: Muscarinic acetylcholine receptor M2 (Homo sapiens) (UniProt P08172); conditions: Compound concentration 1.0 uM
[34] = target: Muscarinic acetylcholine receptor M3 (Homo sapiens) (UniProt P20309); conditions: Compound concentration 1.0 uM
[35] = target: Muscarinic acetylcholine receptor M4 (Homo sapiens) (UniProt P08173); conditions: Compound concentration 1.0 uM
[36] = target: Muscarinic acetylcholine receptor M5 (Homo sapiens) (UniProt P08912); conditions: Compound concentration 1.0 uM
[37] = target: Beta-3 adrenergic receptor (Homo sapiens) (UniProt P13945); conditions: Compound concentration 1.0 uM
[38] = target: T1, GABA-A receptor; anion channel (Rattus norvegicus); conditions: Compound concentration 1.0 uM; remark: listed apart in the source
Rattus norvegicus = species: Rattus norvegicus; conditions: Compound concentration 1.0 uM
[39] = target: Alpha-1D adrenergic receptor (Homo sapiens) (UniProt P25100); conditions: Compound concentration 1.0 uM
[40] = target: Sigma intracellular receptor 2 (Homo sapiens) (UniProt Q5BJF2); conditions: Compound concentration 1.0 uM
[41] = target: Sigma non-opioid intracellular receptor 1 (Homo sapiens) (UniProt Q99720); conditions: Compound concentration 1.0 uM
[42] = Cellular activity assay: GPR54 expressing cell growth
KiSS-1 receptor = KiSS-1 receptor (Homo sapiens, UniProt Q969F8); experiment: Agonist activity for hGPR54 (C-terminal ethyl amide)
[43] = target: 5-hydroxytryptamine receptor 2A (Homo sapiens) (UniProt P28223); conditions: Compound concentration 1.0 uM
[44] = target: 5-hydroxytryptamine receptor 3A (Homo sapiens) (UniProt P46098); conditions: Compound concentration 1.0 uM
[45] = target: D(4) dopamine receptor (Homo sapiens) (UniProt P21917); conditions: Compound concentration 1.0 uM

Sequence of Alpha-1B adrenergic receptor (Homo sapiens) (P35368 whole entry): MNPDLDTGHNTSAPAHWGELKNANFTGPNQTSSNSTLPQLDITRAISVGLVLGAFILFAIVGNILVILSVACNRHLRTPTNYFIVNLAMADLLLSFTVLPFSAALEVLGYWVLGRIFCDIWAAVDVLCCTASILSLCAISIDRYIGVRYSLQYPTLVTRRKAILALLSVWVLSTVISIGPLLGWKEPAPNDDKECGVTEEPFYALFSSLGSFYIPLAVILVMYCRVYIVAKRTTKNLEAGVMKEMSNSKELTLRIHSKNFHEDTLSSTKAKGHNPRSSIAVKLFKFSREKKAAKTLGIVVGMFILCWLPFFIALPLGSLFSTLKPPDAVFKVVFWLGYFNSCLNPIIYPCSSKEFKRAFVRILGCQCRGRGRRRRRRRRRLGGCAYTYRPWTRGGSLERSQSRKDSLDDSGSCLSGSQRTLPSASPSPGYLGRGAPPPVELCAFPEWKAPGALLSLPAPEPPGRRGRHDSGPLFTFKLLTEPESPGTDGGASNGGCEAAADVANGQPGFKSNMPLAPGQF
Sequence of Beta-2 adrenergic receptor (Homo sapiens) (P07550 whole entry, looked up): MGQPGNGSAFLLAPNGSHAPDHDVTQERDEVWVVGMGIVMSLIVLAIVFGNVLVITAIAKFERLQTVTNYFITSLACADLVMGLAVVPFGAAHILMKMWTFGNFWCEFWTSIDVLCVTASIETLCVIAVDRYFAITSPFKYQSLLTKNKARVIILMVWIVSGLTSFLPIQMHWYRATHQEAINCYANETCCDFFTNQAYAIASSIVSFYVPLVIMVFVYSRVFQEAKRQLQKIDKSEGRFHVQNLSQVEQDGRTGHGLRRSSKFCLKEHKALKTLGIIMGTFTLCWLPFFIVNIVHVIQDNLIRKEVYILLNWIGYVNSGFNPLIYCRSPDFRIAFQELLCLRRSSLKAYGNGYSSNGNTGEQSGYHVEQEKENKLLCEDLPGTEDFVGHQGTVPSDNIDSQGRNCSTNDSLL
Sequence of Muscarinic acetylcholine receptor M3 (Homo sapiens) (P20309 whole entry, looked up): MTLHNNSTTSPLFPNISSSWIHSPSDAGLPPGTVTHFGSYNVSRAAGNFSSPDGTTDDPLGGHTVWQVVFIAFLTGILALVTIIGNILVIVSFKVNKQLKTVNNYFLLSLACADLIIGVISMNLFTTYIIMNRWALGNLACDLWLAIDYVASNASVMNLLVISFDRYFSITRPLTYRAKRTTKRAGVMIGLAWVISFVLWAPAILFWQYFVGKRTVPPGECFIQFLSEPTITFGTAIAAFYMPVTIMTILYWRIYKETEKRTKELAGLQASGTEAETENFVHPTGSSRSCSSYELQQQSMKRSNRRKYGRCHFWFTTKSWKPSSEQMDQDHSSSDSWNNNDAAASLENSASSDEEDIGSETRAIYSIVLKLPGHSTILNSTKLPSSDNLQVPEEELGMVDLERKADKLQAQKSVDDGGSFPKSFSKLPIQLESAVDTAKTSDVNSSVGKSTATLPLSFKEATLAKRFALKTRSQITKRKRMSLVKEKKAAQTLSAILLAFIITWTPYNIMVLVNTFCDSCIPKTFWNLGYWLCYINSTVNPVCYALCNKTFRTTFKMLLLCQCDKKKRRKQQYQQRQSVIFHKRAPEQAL
Sequence of Muscarinic acetylcholine receptor M2 (Homo sapiens) (P08172 whole entry): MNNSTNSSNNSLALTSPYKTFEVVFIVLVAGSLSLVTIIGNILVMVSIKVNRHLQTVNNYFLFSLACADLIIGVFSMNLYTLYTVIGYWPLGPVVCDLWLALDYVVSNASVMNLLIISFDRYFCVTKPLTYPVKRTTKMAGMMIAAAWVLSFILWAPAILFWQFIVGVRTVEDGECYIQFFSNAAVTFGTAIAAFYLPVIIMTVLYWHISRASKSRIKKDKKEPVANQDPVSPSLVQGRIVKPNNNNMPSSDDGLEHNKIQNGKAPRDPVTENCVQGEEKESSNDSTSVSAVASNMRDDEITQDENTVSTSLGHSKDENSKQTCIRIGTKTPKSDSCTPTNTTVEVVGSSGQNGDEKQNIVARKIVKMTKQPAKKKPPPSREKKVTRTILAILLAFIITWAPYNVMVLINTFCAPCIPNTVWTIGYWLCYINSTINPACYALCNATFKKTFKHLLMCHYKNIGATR
Sequence of Beta-3 adrenergic receptor (Homo sapiens) (P13945 whole entry, looked up): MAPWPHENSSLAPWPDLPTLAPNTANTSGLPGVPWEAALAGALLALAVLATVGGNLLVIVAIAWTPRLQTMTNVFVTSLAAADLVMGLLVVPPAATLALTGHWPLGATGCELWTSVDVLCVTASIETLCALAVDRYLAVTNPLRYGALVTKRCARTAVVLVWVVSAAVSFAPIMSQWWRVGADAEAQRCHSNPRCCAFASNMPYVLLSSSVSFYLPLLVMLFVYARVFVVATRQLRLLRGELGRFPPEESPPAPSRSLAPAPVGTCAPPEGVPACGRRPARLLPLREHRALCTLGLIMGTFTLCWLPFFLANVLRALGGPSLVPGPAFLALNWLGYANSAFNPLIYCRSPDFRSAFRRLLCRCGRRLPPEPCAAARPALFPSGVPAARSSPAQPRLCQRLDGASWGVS
Sequence of Beta-1 adrenergic receptor (Homo sapiens) (P08588 whole entry, looked up): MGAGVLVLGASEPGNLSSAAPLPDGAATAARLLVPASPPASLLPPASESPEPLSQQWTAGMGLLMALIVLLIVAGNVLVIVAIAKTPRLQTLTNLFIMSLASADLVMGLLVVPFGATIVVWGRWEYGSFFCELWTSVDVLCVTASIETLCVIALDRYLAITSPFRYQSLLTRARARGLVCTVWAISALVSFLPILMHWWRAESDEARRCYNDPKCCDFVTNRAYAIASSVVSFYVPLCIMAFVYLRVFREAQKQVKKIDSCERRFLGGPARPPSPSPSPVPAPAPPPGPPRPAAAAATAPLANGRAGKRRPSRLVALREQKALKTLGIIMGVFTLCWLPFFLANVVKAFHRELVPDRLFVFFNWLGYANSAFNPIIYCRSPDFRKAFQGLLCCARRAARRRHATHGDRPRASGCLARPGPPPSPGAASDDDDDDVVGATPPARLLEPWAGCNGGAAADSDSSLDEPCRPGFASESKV
Sequence of Alpha-2B adrenergic receptor (Homo sapiens) (P18089 whole entry): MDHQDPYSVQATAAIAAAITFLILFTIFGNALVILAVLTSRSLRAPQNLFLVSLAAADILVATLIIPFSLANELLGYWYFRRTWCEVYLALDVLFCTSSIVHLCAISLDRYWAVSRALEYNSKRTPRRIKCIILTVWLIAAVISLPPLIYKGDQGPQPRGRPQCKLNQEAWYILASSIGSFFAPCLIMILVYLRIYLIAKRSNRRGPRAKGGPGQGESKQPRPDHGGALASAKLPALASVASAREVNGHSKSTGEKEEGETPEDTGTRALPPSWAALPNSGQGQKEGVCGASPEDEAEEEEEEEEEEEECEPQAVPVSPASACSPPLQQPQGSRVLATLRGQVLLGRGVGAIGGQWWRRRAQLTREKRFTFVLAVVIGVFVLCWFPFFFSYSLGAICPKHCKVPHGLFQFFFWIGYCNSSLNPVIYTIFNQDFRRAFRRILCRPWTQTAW
Sequence of Kappa-type opioid receptor (Homo sapiens) (P41145 whole entry): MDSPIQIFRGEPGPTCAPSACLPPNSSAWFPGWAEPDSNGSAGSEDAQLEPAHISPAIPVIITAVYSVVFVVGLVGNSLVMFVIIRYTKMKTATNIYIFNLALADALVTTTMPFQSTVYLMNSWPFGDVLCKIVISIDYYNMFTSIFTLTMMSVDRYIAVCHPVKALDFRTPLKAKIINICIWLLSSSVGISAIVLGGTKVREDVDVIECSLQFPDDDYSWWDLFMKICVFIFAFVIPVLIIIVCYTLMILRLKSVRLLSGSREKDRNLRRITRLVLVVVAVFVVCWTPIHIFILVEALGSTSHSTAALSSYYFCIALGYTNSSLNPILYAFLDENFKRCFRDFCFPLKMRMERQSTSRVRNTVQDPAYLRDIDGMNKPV
Sequence of D(3) dopamine receptor (Homo sapiens) (P35462 whole entry): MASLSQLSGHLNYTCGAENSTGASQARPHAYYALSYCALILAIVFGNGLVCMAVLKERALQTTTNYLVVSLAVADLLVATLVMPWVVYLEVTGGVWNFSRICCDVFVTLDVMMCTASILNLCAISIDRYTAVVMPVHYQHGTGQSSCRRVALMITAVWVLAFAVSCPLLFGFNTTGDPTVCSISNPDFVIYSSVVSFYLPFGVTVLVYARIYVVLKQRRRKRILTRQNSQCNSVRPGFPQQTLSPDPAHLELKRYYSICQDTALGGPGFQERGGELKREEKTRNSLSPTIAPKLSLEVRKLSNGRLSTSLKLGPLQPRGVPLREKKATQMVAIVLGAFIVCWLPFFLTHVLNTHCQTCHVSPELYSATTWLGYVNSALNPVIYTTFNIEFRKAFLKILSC
Sequence of Sigma non-opioid intracellular receptor 1 (Homo sapiens) (Q99720 whole entry): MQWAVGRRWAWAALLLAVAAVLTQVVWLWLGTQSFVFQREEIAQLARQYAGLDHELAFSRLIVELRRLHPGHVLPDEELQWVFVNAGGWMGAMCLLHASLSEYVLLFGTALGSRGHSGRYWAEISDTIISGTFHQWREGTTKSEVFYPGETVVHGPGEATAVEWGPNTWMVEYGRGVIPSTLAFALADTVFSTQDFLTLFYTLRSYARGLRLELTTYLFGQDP
Sequence of Delta-type opioid receptor (P41143 whole entry): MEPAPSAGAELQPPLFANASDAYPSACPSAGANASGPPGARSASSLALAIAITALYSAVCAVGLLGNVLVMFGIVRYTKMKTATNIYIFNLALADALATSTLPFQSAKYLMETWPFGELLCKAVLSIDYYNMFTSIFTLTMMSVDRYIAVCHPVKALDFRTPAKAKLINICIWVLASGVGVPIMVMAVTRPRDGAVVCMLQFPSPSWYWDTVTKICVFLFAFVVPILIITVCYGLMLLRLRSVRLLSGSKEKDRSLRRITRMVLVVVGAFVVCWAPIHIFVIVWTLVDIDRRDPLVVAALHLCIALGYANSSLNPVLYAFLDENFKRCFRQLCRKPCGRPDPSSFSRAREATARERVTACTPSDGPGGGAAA
Sequence of Sigma intracellular receptor 2 (Homo sapiens) (Q5BJF2 whole entry): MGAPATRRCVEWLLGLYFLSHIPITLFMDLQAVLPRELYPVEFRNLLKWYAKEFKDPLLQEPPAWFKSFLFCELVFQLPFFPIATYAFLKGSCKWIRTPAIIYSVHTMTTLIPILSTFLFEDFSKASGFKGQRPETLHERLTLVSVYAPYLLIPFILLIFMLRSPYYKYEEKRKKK

Question: Which results are given for CNC(=N)NCCC[C@H](NC(=O)[C@H](CC(C)C)NC(=O)NNC(=O)[C@H](Cc1ccccc1)NC(=O)[C@H](CO)NC(=O)[C@H](CC(N)=O)NC(=O)[C@@H](Cc1ccncc1)NC(=O)[C@H](N)Cc1ccc(O)cc1)C(=O)N[C@@H](Cc1ccccc1)C(N)=O [KISS1-305] (H-[dY][d4Pal]NSF[azaGly]L[Arg(Me)]F-NH2)?
Answer: Ki ([1]; read-out: Ki): 47.5 nM; Ki ([1]; read-out: pKi (converted)): 44.7 nM; inhibition [2]: 18.5%; inhibition [3]: 29.3%; inhibition [4]: 10.4%; inhibition [5]: 24.1%; inhibition [6]: 1.13%; inhibition [7]: 12.8%; inhibition [8]: 20.1%; inhibition [9]: 4.93%; inhibition [10]: -2.33%; inhibition [11]: -7.58%; inhibition [12]: 0.859%; inhibition [13]: -8.85%; inhibition [14]: 0.512%; inhibition [15]: 8.84%; inhibition [16]: 5.4%; inhibition [17]: 12%; inhibition [18]: -4.62%; inhibition [19]: -6.31%; inhibition [20]: 1.39%; inhibition [21]: 19.9%; inhibition [22]: 4.38%; inhibition [23]: 43.3%; inhibition [24]: 10.4%; inhibition [25]: -9.06%; inhibition [26]: -7.65%; inhibition [27]: 8.6%; inhibition [28]: 17.6%; inhibition [29]: 4.19%; inhibition [30]: 0.557%; inhibition [31]: 1.39%; inhibition [32]: 2.17%; inhibition [33]: 25.1%; inhibition [34]: 10.7%; inhibition [35]: 13.8%; inhibition [36]: 14.9%; inhibition [37]: 7.09%; inhibition [38]: 13.6%; inhibition (Rattus norvegicus): 31.4%; inhibition [39]: 13.9%; inhibition [40]: -5.31%; inhibition [41]: 3.72%; IC50 [42]: 8.94 nM (active)

Question: What does the source list for CNC(=N)NCCC[C@H](NC(=O)[C@H](CC(C)C)NC(=O)NNC(=O)[C@H](Cc1ccccc1)NC(=O)[C@H](CO)NC(=O)[C@H](CC(N)=O)NC(=O)[C@@H](Cc1cccnc1)NC(=O)[C@H](N)Cc1ccc(O)cc1)C(=O)NCC(N)=O [KISS1-543] (H-[dY][d3Pal]NSF[azaGly]L[Arg(Me)]G-NH2)?
Answer: EC50 (KiSS-1 receptor): > 1000 nM (not active); inhibition [2]: 30.9%; inhibition [3]: 31%; inhibition [4]: 12.4%; inhibition [5]: 27.9%; inhibition [43]: 16.9%; inhibition [6]: 11.3%; inhibition [7]: -2.67%; inhibition [44]: -8.29%; inhibition [8]: 16.3%; inhibition [9]: -0.513%; inhibition [10]: -6.69%; inhibition [11]: -0.599%; inhibition [12]: 9.68%; inhibition [13]: -3.9%; inhibition [45]: -9.83%; inhibition [14]: 29.2%; inhibition [15]: -0.408%; inhibition [16]: -1.33%; inhibition [17]: 10.4%; inhibition [18]: -7.85%; inhibition [19]: -5.75%; inhibition [20]: 15.5%; inhibition [22]: 3.31%; inhibition [23]: 12.5%; inhibition [24]: -3.39%; inhibition [26]: -2.08%; inhibition [27]: 10.2%; inhibition [28]: 14.5%; inhibition [29]: -0.48%; inhibition [30]: 3.41%; inhibition [31]: -2.89%; inhibition [32]: 15.1%; inhibition [33]: 40.7%; inhibition [34]: 24.7%; inhibition [35]: 18.5%; inhibition [36]: 12.3%; inhibition [37]: 2.7%; inhibition [38]: 12.3%; inhibition (Rattus norvegicus): 15.6%; inhibition [39]: 9.13%; inhibition [40]: -8.74%; inhibition [41]: 0.205%
